According to the NIST ThermoML archive (doi:10.1016/j.fluid.2008.02.005):

Key:
[1] = xn = mol fraction of the nth substance listed; conditions: 101 kPa, Liquid
[2] = 101.33 kPa, Liquid

CCCCCCOCCOCCO [2-(2-hexyloxyethoxy)ethanol] + CCCO
mass density [kg/m3], [1]
Conditions | 288.15 K | 298.15 K | 308.15 K
x1 = 0.1085 | 837.518 | 829.325 | 820.919
x1 = 0.1608 | 848.615 | 840.381 | 831.968
x1 = 0.2102 | 857.751 | 849.425 | 841.022
x1 = 0.2477 | 863.891 | 855.521 | 847.161
x1 = 0.2972 | 871.227 | 862.829 | 854.397
x1 = 0.3493 | 878.129 | 869.65 | 861.101
x1 = 0.4048 | 884.6 | 876.088 | 867.464
x1 = 0.46 | 890.404 | 881.84 | 873.153
x1 = 0.5003 | 894.261 | 885.64 | 876.925
x1 = 0.5584 | 899.282 | 890.668 | 881.873
x1 = 0.6066 | 903.088 | 894.428 | 885.633
x1 = 0.6604 | 906.948 | 898.225 | 889.461
x1 = 0.6964 | 909.32 | 900.561 | 891.847
x1 = 0.7532 | 912.745 | 903.981 | 895.267
x1 = 0.8054 | 915.595 | 906.826 | 898.1
x1 = 0.8563 | 918.152 | 909.394 | 900.587
x1 = 0.9044 | 920.357 | 911.598 | 902.735
x1 = 0.9593 | 922.69 | 913.937 | 905.015

CCCCCCOCCOCCO [2-(2-hexyloxyethoxy)ethanol] + CO
mass density [kg/m3], [1]
Conditions | 288.15 K | 298.15 K | 308.15 K
x1 = 0.1165 | 853.467 | 844.018 | 834.816
x1 = 0.162 | 865.705 | 856.244 | 846.965
x1 = 0.2113 | 875.875 | 866.451 | 857.177
x1 = 0.266 | 884.716 | 875.458 | 866.337
x1 = 0.3119 | 890.88 | 881.656 | 872.742
x1 = 0.3606 | 896.388 | 887.19 | 878.481
x1 = 0.4012 | 900.31 | 891.16 | 882.585
x1 = 0.4577 | 904.872 | 895.844 | 887.363
x1 = 0.5071 | 908.159 | 899.262 | 890.741
x1 = 0.5578 | 911.041 | 902.168 | 893.568
x1 = 0.6037 | 913.218 | 904.353 | 895.701
x1 = 0.6644 | 915.682 | 906.87 | 898.078
x1 = 0.7102 | 917.283 | 908.456 | 899.602
x1 = 0.7533 | 918.633 | 909.864 | 901.011
x1 = 0.7928 | 919.837 | 911.054 | 902.199
x1 = 0.8517 | 921.511 | 912.714 | 903.777
x1 = 0.9 | 922.714 | 913.911 | 905.244
x1 = 0.9674 | 924.001 | 915.182 | 906.508

CCCCCCCO [heptan-1-ol]
[2]
Conditions | mass density [kg/m3]
288.15 K | 825.943
298.15 K | 818.789
308.15 K | 812.385

CO [methanol]
[2]
Conditions | mass density [kg/m3]
288.15 K | 795.969
298.15 K | 786.548
308.15 K | 777.067

CCCCCO [pentan-1-ol]
[2]
Conditions | mass density [kg/m3]
288.15 K | 818.336
298.15 K | 811.001
308.15 K | 803.302

CCCO [propan-1-ol]
[2]
Conditions | mass density [kg/m3]
288.15 K | 807.898
298.15 K | 799.666
308.15 K | 791.765
